Target: T1, Purine nucleoside phosphorylase (Mycobacterium tuberculosis, UniProt P9WP01)
T1 sequence (P9WP01 whole entry): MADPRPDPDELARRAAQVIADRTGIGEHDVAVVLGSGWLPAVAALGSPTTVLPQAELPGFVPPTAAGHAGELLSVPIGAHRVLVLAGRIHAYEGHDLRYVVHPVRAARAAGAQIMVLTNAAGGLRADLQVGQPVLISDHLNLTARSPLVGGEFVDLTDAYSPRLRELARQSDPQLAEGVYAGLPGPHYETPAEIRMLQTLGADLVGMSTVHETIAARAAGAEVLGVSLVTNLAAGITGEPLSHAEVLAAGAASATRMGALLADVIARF
Test: Binding affinity to Mycobacterium tuberculosis purine nucleoside phosphorylase by spectrophotometric analysis

| Compound | Kd |
| --- | --- |
| Nc1nc2c(ncn2COCCO)c(=O)[nH]1 [ACYCLOVIR] | 12.6 µM |
| CSc1nc(N)nc2[nH]cnc12 | 316 µM |
| O=c1[nH]c(=O)c2c[nH]nc2[nH]1 [OXYPURINOL] | 794 µM |
| Nc1nc(O)c2ncn(COC(CO)CO)c2n1 [GANCICLOVIR] | 15.8 µM |
| CSc1ncnc2c1ncn2[C@@H]1O[C@H](CO)[C@@H](O)[C@H]1O | 12.6 µM |
| Oc1ncnc2[nH]ncc12 [ALLOPURINOL] | 1000 µM |
| Sc1ncnc2nc[nH]c12 [MERCAPTOPURINE ANHYDROUS] | 79.4 µM |

— ChEMBL document CHEMBL1177645, “Crystallographic and docking studies of purine nucleoside phosphorylase from Mycobacterium tuberculosis” (Bioorg Med Chem, 2010)
